Test [1] deals with Epidermal growth factor receptor (Homo sapiens, UniProt P00533). The test can be described thus: Inhibition of wild type EGFR (unknown origin) by mobility shift assay.
Test [2] deals with Epidermal growth factor receptor (Homo sapiens, UniProt P00533, L858R/T790M). Briefly: Inhibition of EGFR L858R/T790M mutant (unknown origin) by mobility shift assay.
The target of test [3] is Epidermal growth factor receptor (Homo sapiens, UniProt P00533, C797S/L858R/T790M). The test can be described thus: Inhibition of EGFR L858R/T790M/C797S mutant (unknown origin) by mobility shift assay.
Test [4] addresses Hepatocyte growth factor receptor (Homo sapiens, UniProt P08581). The test can be described thus: Inhibition of c-Met (unknown origin) by mobility shift assay.
Test [5] relates to A549. Briefly: Antiproliferative activity against human A549 cells assessed as cell viability after 72 hrs by MTT assay. The format is functional, cell-based. The note with it: A549, 72 h.
Test [6] relates to NCI-H1975. The test can be described thus: Antiproliferative activity against human H1975 cells assessed as cell viability after 72 hrs by MTT assay. The note with it: NCI-H1975, 72 h. The format is functional, cell-based. (In general: Tetrazolium dyes change colour on reduction, which living cells bring about.)
For test [7], the system named is A549. The test can be described thus: Induction of apoptosis in human A549 cells assessed as cell shrinkage after 48 hrs by AO/EB staining based fluorescent microscopic analysis. The format is functional. The note with it: dose 0.1-10 µM, DDE = dose-dependent effect.
The subject of test [8] is A549. Briefly: Induction of apoptosis in human A549 cells assessed as chromatin condensation after 48 hrs by AO/EB staining based fluorescent microscopic analysis. The format is functional, cell-based. The note with it: dose 0.1-10 µM, DDE = dose-dependent effect.
The subject of test [9] is NCI-H1975. The test can be described thus: Induction of apoptosis in human H1975 cells assessed as cell shrinkage after 48 hrs by AO/EB staining based fluorescent microscopic analysis. The format is functional. The note with it: dose 0.1-10 µM, DDE = dose-dependent effect.
Test [10] has as its system NCI-H1975. The test can be described thus: Induction of apoptosis in human H1975 cells assessed as chromatin condensation after 48 hrs by AO/EB staining based fluorescent microscopic analysis. The format is functional, cell-based. The note with it: dose 0.1-10 µM, DDE = dose-dependent effect.
Test [11] concerns A549. Briefly: Inhibition of cell migration of human A549 cells at 0.1 to 1 uM after 24 hrs by scratch wound healing assay. The format is functional, cell-based. The note with it: dose 0.1-1 µM.
For test [12], the system named is NCI-H1975. The test can be described thus: Inhibition of cell migration of human H1975 cells at 0.1 to 1 uM after 24 hrs by scratch wound healing assay. The format is functional, cell-based. The note with it: dose 0.1-1 µM.
Test [13] deals with NCI-H1975. Briefly: Induction of cell cycle arrest in human H1975 cells assessed as number of cells at S phase at 1.3 uM after 24 hrs by flow cytometry (reference value: 25.41%). The format is functional. For orientation: Flow cytometry measures light scatter and fluorescence of single cells or particles in a stream.
Test [14] concerns NCI-H1975. The test can be described thus: Induction of cell cycle arrest in human H1975 cells assessed as number of cells at S phase at 4 uM after 24 hrs by flow cytometry (reference value: 25.41%). The format is functional.
Test [15] deals with NCI-H1975. Briefly: Induction of cell cycle arrest in human H1975 cells assessed as number of cells at S phase at 12 uM after 24 hrs by flow cytometry (reference value: 25.41%). The format is functional.
Test [16] relates to NCI-H1975. Briefly: Induction of cell cycle arrest in human H1975 cells assessed as number of cells at G2/M phase at 1.3 uM after 24 hrs by flow cytometry (reference value: 31.41%). The format is functional.
Test [17] relates to NCI-H1975. Briefly: Induction of cell cycle arrest in human H1975 cells assessed as number of cells at G2/M phase at 4 uM after 24 hrs by flow cytometry (reference value: 31.41%). The format is functional.
In test [18] the test system is NCI-H1975. Briefly: Induction of cell cycle arrest in human H1975 cells assessed as number of cells at G2/M phase at 12 uM after 24 hrs by flow cytometry (reference value: 31.41%). The format is functional.
In test [19] the test system is NCI-H1975. The test can be described thus: Induction of cell cycle arrest in human H1975 cells assessed as number of cells at G1/G0 phase at 1.3 uM after 24 hrs by flow cytometry (reference value: 43.18%). The format is functional.
In test [20] the test system is NCI-H1975. The test can be described thus: Induction of cell cycle arrest in human H1975 cells assessed as number of cells at G1/G0 phase at 4 uM after 24 hrs by flow cytometry (reference value: 43.18%). The format is functional.
The test system of test [21] is NCI-H1975. Briefly: Induction of cell cycle arrest in human H1975 cells assessed as number of cells at G1/G0 phase at 12 uM after 24 hrs by flow cytometry (reference value: 43.18%). The format is functional.
For test [22], the system named is Epidermal growth factor receptor (Homo sapiens), P00533 [L858R,T790M,C797S]. The note with it: dose 300.0 nM.

Molecules are shown by their SMILES. Activity calls are given as the source filed them. The calls are words filed in the database; no cut-off is given here.

Chain of Epidermal growth factor receptor (Homo sapiens, UniProt P00533) (P00533 whole entry): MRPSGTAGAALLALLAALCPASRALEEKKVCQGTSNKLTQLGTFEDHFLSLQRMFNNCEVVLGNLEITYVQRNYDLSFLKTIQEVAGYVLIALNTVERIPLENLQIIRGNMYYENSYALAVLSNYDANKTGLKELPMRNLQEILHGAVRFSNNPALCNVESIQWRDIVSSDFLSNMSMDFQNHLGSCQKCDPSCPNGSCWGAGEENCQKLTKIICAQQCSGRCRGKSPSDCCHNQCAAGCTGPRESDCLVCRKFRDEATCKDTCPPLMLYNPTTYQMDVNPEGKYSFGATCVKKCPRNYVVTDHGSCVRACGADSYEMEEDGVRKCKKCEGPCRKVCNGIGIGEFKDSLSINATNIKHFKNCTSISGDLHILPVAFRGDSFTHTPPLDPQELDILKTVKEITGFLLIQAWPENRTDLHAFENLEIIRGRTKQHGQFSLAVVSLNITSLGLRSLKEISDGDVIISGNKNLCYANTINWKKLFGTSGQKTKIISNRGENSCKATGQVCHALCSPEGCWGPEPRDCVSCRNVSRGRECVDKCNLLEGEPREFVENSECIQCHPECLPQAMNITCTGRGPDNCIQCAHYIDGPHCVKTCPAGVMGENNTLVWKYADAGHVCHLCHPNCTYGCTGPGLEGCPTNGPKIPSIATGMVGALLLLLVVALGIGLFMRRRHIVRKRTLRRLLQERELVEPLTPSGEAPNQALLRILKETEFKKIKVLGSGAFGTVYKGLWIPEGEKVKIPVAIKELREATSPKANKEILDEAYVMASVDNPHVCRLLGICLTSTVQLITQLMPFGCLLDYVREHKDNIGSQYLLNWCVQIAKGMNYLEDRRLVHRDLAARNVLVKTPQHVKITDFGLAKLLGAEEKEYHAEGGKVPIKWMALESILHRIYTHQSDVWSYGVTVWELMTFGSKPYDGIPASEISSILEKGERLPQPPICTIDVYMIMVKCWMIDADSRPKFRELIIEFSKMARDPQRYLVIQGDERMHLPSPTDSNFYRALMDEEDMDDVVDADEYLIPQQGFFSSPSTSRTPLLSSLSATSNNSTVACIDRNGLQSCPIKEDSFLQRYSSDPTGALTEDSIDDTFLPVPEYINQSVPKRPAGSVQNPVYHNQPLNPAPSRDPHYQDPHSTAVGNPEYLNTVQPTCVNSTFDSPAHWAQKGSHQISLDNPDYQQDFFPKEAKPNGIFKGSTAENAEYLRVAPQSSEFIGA
Chain of Epidermal growth factor receptor (Homo sapiens, UniProt P00533, C797S/L858R/T790M) (P00533 25-1210 T790M/C797S/L858R limits assumed): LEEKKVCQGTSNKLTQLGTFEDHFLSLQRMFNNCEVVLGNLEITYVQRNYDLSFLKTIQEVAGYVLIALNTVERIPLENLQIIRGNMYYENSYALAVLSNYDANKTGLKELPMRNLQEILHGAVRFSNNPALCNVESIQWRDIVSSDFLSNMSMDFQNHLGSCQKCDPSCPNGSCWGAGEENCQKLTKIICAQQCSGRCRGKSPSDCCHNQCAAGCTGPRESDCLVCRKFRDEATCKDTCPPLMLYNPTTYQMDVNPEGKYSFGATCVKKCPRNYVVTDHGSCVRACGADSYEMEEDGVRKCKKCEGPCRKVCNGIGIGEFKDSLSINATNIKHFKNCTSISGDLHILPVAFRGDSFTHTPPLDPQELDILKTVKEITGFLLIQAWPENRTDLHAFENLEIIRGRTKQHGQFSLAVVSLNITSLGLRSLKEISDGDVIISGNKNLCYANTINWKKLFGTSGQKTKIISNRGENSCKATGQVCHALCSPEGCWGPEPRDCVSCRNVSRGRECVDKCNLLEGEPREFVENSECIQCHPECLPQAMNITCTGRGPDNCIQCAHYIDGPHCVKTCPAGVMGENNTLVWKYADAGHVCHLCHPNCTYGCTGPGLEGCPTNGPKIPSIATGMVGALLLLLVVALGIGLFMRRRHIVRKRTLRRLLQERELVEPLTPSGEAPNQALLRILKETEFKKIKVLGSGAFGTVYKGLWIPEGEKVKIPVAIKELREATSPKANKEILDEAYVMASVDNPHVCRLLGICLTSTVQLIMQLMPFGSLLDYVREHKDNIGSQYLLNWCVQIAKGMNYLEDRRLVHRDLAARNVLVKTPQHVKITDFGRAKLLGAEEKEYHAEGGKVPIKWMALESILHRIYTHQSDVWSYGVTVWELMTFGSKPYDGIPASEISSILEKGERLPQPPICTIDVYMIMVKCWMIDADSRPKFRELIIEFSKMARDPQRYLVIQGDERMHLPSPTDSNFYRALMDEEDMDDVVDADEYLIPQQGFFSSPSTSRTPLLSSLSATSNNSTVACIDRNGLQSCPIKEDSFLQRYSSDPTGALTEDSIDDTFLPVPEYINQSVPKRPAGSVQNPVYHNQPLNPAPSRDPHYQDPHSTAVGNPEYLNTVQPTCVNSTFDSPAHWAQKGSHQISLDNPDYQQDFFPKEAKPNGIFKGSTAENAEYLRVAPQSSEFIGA
Chain of Hepatocyte growth factor receptor (P08581 whole entry): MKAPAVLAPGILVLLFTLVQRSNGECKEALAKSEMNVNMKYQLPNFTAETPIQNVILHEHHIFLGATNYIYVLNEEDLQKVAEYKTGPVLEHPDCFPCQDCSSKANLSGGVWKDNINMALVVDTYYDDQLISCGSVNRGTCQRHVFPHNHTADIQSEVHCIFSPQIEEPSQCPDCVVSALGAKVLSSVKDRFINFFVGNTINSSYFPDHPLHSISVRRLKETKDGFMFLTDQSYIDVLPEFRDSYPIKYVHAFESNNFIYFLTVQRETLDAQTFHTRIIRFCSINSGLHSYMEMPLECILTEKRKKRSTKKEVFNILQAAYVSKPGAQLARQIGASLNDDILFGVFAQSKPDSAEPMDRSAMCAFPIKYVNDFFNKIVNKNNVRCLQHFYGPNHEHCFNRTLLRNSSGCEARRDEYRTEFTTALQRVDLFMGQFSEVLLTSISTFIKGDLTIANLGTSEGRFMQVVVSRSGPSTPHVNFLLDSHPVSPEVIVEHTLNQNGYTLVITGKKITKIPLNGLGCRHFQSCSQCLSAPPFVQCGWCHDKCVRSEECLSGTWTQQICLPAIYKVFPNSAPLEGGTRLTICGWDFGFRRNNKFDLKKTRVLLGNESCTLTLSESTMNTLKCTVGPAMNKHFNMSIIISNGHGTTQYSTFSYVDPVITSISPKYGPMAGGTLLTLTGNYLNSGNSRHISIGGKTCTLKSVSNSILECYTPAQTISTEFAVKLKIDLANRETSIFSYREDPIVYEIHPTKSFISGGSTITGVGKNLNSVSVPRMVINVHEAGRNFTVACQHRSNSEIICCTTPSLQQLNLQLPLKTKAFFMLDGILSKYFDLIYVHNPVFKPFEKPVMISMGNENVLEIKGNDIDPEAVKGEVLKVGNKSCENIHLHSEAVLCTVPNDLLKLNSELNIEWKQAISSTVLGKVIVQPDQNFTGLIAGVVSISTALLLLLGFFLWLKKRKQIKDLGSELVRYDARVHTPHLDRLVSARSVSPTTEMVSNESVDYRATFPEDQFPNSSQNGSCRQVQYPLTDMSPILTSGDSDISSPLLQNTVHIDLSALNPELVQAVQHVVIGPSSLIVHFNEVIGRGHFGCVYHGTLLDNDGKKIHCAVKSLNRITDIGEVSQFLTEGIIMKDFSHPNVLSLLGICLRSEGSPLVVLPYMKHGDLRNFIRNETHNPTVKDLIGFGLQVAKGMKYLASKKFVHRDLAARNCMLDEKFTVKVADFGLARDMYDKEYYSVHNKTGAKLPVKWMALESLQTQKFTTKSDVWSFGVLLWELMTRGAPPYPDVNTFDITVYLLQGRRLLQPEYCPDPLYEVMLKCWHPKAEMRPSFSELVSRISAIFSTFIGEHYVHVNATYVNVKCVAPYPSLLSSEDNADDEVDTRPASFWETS
Chain of Epidermal growth factor receptor (Homo sapiens, UniProt P00533, L858R/T790M) (P00533 25-1210 T790M/L858R limits assumed): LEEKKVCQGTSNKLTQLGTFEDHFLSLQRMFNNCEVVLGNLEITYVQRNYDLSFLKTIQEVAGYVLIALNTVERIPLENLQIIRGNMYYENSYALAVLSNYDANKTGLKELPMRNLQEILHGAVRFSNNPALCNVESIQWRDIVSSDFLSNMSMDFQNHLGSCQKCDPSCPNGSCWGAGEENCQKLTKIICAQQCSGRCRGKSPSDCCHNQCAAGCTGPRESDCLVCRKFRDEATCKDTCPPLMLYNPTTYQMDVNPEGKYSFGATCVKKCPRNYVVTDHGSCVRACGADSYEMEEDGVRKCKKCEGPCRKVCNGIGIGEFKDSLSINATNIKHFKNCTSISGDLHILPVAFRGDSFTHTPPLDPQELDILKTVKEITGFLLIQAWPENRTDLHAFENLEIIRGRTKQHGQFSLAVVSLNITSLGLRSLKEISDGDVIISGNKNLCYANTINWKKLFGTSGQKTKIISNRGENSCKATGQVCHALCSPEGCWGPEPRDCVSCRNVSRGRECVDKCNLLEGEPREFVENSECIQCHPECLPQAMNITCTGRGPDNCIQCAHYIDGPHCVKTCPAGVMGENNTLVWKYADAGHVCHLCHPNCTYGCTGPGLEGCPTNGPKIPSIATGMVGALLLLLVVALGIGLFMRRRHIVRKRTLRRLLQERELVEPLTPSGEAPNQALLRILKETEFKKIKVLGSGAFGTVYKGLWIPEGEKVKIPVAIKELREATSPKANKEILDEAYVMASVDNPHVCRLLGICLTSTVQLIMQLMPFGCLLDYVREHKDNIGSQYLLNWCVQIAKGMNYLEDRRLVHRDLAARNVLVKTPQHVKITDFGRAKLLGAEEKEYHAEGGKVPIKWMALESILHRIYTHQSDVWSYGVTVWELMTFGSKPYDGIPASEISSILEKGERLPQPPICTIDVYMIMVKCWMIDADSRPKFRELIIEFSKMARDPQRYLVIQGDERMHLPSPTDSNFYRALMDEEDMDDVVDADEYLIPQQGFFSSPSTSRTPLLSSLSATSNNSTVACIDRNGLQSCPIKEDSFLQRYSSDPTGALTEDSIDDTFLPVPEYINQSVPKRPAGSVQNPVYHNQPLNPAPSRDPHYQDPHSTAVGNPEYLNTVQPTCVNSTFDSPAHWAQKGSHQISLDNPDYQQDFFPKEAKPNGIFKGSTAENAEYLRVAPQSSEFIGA

Take `COc1cc(N(C)CCN(C)C)c(NC(=O)c2ccncn2)cc1Nc1nccc(-c2cn(C)c3ccccc23)n1`: the IC50 (in general, the midpoint of a concentration-inhibition curve) in test [1] was 29 nM; in [2], 10 nM; in test [3], 242 nM; in test [4], more than 1000 nM; in the test with A549 [5], 2530 nM; with NCI-H1975 [6] it was 1560 nM. For the same compound, the Activity result in the test with A549 [7] was “Dde”; in the test with A549 [8] it was “Dde”; with NCI-H1975 [9], “Dde”; with NCI-H1975 [10] it was “Dde”; in the test on NCI-H1975 [13] it was 22.67%; in the test on NCI-H1975 [14], 18.36%. Also, the Activity in the test on NCI-H1975 [15] stood at 12.55%; in the test on NCI-H1975 [16], 31.18%; in the test on NCI-H1975 [17], 31.02%; in the test with NCI-H1975 [18] it was 30.13%; in the test on NCI-H1975 [19] it was 46.15%; in the test on NCI-H1975 [20], 50.62%. Besides, the Activity in the test with NCI-H1975 [21] was found to be 57.32%. The inhibition result in the test on A549 [11] and with NCI-H1975 [12] was “Active” each time. In addition, the inhibition (as a rule, the share of the control response that was lost under treatment) in test [22] was found to be 60.8%.

On to `COc1cc(N(C)CCN(C)C)c(NC(=O)c2ccncn2)cc1Nc1nccc(-c2cn(CCCO)c3ccccc23)n1`, for which the concentration for half-maximal inhibition (IC50) is 590 nM in [1]; 41 nM in [2]; 161 nM in test [3]; more than 1000 nM in [4]; 2660 nM in the test on A549 [5]; 2120 nM in the test with NCI-H1975 [6]. In [22], the inhibition amounted to 65.6%.

On to `COc1cc(N(C)CCN(C)C)c(NC(=O)c2ncccn2)cc1Nc1nccc(-c2cn(C)c3ccccc23)n1`, for which the IC50 in [1] was 146 nM; in test [2] it was 30 nM; in test [3], more than 500 nM; in test [4], more than 1000 nM; in the test with A549 [5], 2490 nM; in the test with NCI-H1975 [6], 650 nM. The compound also had an inhibition in [22] of 38.2%.

As for `COc1cc(N(C)CCN(C)C)c(NC(=O)c2ccnc(Cl)c2)cc1Nc1nccc(-c2cn(C)c3ccccc23)n1`, the IC50 in [1] is more than 500 nM; in test [2], more than 500 nM; in test [3], 420 nM; in [4], more than 1000 nM; in the test with A549 [5], 970 nM; with NCI-H1975 [6] it was 2050 nM. For the same compound, the inhibition in test [22] amounted to 42.9%.

With `COc1cc(N(C)CCN(C)C)c(NC(=O)c2nccn2C)cc1Nc1nc(-c2cn(C)c3ccccc23)c2cccnc2n1`, the IC50 in [1] was more than 500 nM; in test [2] it was 420 nM; in test [3] it was more than 500 nM; in test [4] it was more than 1000 nM; in the test on A549 [5], 5640 nM; with NCI-H1975 [6], 4200 nM. Moreover, the inhibition in test [22] was 19.4%.

Consider `COc1cc(N(C)CCN(C)C)c(NC(=O)c2ccnc(Cl)c2)cc1Nc1nccc(-c2cn(CCCO)c3ccccc23)n1`, for which the IC50 in [1] was 743 nM; in test [2], 42 nM; in test [3] it was 137 nM; in test [4], more than 1000 nM; with A549 [5] it was 2140 nM; in the test on NCI-H1975 [6] it was 1820 nM. In test [22], this compound yielded an inhibition of 70.1%.

Turning to `COc1cc(N(C)CCN(C)C)c(NC(=O)c2ccncc2OC)cc1Nc1nccc(-c2cn(C)c3ccccc23)n1`, the IC50 in test [1] was more than 500 nM; in test [2], 100 nM; in test [3], more than 500 nM; in test [4], more than 1000 nM; with A549 [5], 2690 nM; with NCI-H1975 [6] it was 1010 nM. The inhibition in test [22] was determined as 28.5%.

The values above are taken from ChEMBL document CHEMBL5137051 (Eur J Med Chem, 2022).
